# Tested on: CD8+ P1CTL T cells
# Assay: Proliferation and differentiation of P1A-specific P1CTL CD8+ T cells
# Format: in vivo, mouse
# Experimental: CD8^+ P1A-specific, T cells were prepared from meshed cell suspensions of TCR transgenic lymph nodes and spleen by depleting B220, CD4, F4/80 and MHC class II-expressing cells using sheep anti-rat IgG Dynabeads®. For CFSE labeling (Molecular Probes), the cells at 10^7/ml in PBS were incubated with 5 μM CFSE for 10 min at 37° C. The reaction was stopped by washing three times with PBS.
# 2×10^7 irradiated J558-Ld^− cells, were injected i.v. or s.c. into Balb/c mice with or without α-Gal Cer as a DC maturation stimulus. In some experiments we compared α-Gal Cer to agonistic anti-CD40 mAb (1C10, 25 μg i.p.) or the toll like receptor ligands, poly IC ([…], Invivogen) or lipopolysaccharide (20 μgm, Sigma). The mice had been given CFSE-labeled PICTL CD8^+ T cells i.v. 1 d earlier, or were naive animals. In some experiments, mice were sacrificed 3 d later, and T cell division and activation in spleen were analyzed by flow cytometry. Additionally, 7 d or 2 months later, 5×10^6 live J558 tumor cells were inoculated subcutaneously. 5×10^6 Meth A fibrosarcoma was used as a control tumor for challenge. Tumor cell growth was measured with calipers every other day. Mice were scored positive for tumor as soon as tumors became palpable and grew progressively. Mice were euthanized when tumor size exceeded 400 mm^2.
# T-cell division, phagocytosis of CFSE-labeled tumor cells and acquisition of cell surface-activation markers were determined by flow cytometry. Briefly, spleens were harvested and low-density splenocytes were stained with CD11c-APC and CD8α-PE, CD11b-PE, B220-PE or CD4-PE for the up-take examination. For in vivo proliferation of P1CTL T-cells, spleens were harvested and the splenocytes suspension was staining with CD8α-Cy, Vα8α-PE, CD25-PE, CD62L-PE. For intracellular cytokine staining, splenocytes were stimulated in vitro with 1 µg/ml P1A peptide in 5 μg/ml brefeldin A (Sigma-Aldrich) at 37° C. for 4 hrs. The cells were first stained with CD8α-Cy-Chrome™, fixed and permeabilized with cytofix-cytoperm buffer (BD Biosciences), and stained with PE conjugated mAbs to IL-2 or IFN-γ.
structure (smiles),measurement,setting,value
"CCCCCCCCCCCCCCCCCCCCCCCCCC(=O)N[C@@H](CO[C@H]1O[C@H](CO)[C@H](O)[C@H](O)[C@H]1O)[C@H](O)[C@H](O)CCCCCCCCCCCCCC [α-GalCer, 2S,3S,4R-1-O(α-galactopyranosyl)-2(N-hexacosanoylamino)-1,3,4-octadecanetriol]",stimulation of naïve CD8+ P1CTL T cells in culture by isolated DCs,DCs from mice given dying J558 with α-Gal Cer,much more effective at stimulating proliferation of naïve CD8^+ T cells in culture
same,P1CTL proliferation in vivo after DC transfer,"DCs isolated 4 hours after immunization, 3 days",P1CTL proliferation was detected only in response to DCs from mice given tumor with α-Gal Cer
same,IFN-γ and IL-2 production on restimulation with P1A peptide,T cells stimulated in vivo in presence of α-Gal Cer,significantly more IFN-γ and IL-2
same,P1CTL T cell proliferation in vivo,"irradiated J558− plus α-Gal Cer vs J558− alone, 3 days",proliferated more extensively

# Source: patent publication US20090117089A1, “GLYCOLIPIDS AND ANALOGUES THEREOF AS ANTIGENS FOR NK T CELLS” (The Rockefeller University, priority 2005, published 2009)
